Experimental data taken from the supplement of paper PMC10883282.
± gives the standard deviation of the averaged measurements.

System: KHOS-NP
Test: relative viability vs DMSO control (72 h) (fraction); higher = more viable cells
Method in brief: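 Sarcoma cell lines in 384-well plates, seeded to reach 80–90% confluence, were given compound after 24 h and kept 72 h at 37 °C, 5% CO2, with 0.1% DMSO vehicle and a 5 µM positive control. Relative viability came from ATPLite as percent growth, averaged over up to triplicate wells. On the rescaled values, 1 equals full and 0 equals none.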

SMILES: C=CC(=O)Nc1cccc(Oc2nc(Nc3ccc(N4CCN(C)CC4)cc3)nc3ccsc23)c1 [Olmutinib]
- relative viability (0.00017 µM): 1.058 ± 0.01
- relative viability (0.00051 µM): 1.06 ± 0.011
- relative viability (0.00152 µM): 1.068 ± 0.0024
- relative viability (0.00457 µM): 1.067 ± 0.0084
- relative viability (0.01372 µM): 1.07 ± 0.019
- relative viability (0.04115 µM): 1.08 ± 0.026
- relative viability (0.1235 µM): 1.054 ± 0.0094
- relative viability (0.3704 µM): 1.074 ± 0.0078
- relative viability (1.111 µM): 1.06 ± 0.017
- relative viability (3.333 µM): 1.04 ± 0.029
- relative viability (10 µM): 0.926 ± 0.081

SMILES: COc1cc2c(Oc3ccc4[nH]c(C)cc4c3F)ncnc2cc1OCCCN1CCCC1 [Cediranib]
- relative viability (0.00017 µM): 1.08 ± 0.025
- relative viability (0.00051 µM): 1.11 ± 0.02
- relative viability (0.00152 µM): 1.09 ± 0.013
- relative viability (0.00457 µM): 1.08 ± 0.015
- relative viability (0.01372 µM): 1.09 ± 0.018
- relative viability (0.04115 µM): 1.09 ± 0.014
- relative viability (0.1235 µM): 1.04 ± 0.027
- relative viability (0.3704 µM): 1.07 ± 0.029
- relative viability (1.111 µM): 1.036 ± 0.0041
- relative viability (3.333 µM): 1.05 ± 0.016
- relative viability (10 µM): 1.03 ± 0.023

SMILES: Cc1cnc(Nc2ccc(OCCN3CCCC3)cc2)nc1Nc1cccc(S(=O)(=O)NC(C)(C)C)c1 [Fedratinib]
- relative viability (0.00017 µM): 1.09 ± 0.023
- relative viability (0.00051 µM): 1.08 ± 0.049
- relative viability (0.00152 µM): 1.08 ± 0.05
- relative viability (0.00457 µM): 1.09 ± 0.016
- relative viability (0.01372 µM): 1.07 ± 0.022
- relative viability (0.04115 µM): 1.06 ± 0.018
- relative viability (0.1235 µM): 1.02 ± 0.029
- relative viability (0.3704 µM): 1.01 ± 0.039
- relative viability (1.111 µM): 0.905 ± 0.046
- relative viability (3.333 µM): 0.511 ± 0.017
- relative viability (10 µM): 0.216 ± 0.0037

SMILES: CCCS(=O)(=O)Nc1ccc(F)c(C(=O)c2c[nH]c3ncc(-c4ccc(Cl)cc4)cc23)c1F [Vemurafenib]
- relative viability (0.00017 µM): 1.08 ± 0.029
- relative viability (0.00051 µM): 1.074 ± 0.0078
- relative viability (0.00152 µM): 1.08 ± 0.032
- relative viability (0.00457 µM): 1.09 ± 0.017
- relative viability (0.01372 µM): 1.09 ± 0.025
- relative viability (0.04115 µM): 1.08 ± 0.023
- relative viability (0.1235 µM): 1.09 ± 0.03
- relative viability (0.3704 µM): 1.08 ± 0.03
- relative viability (1.111 µM): 1.07 ± 0.034
- relative viability (3.333 µM): 1.06 ± 0.018
- relative viability (10 µM): 0.601 ± 0.031

SMILES: Cn1cnc2c(F)c(Nc3ccc(Br)cc3F)c(C(=O)NOCCO)cc21 [Binimetinib]
- relative viability (0.00017 µM): 1.06 ± 0.034
- relative viability (0.00051 µM): 1.09 ± 0.015
- relative viability (0.00152 µM): 1.081 ± 0.004
- relative viability (0.00457 µM): 1.097 ± 0.0049
- relative viability (0.01372 µM): 1.06 ± 0.045
- relative viability (0.04115 µM): 0.943 ± 0.075
- relative viability (0.1235 µM): 0.857 ± 0.012
- relative viability (0.3704 µM): 0.802 ± 0.066
- relative viability (1.111 µM): 0.425 ± 0.015
- relative viability (3.333 µM): 0.291 ± 0.016
- relative viability (10 µM): 0.276 ± 0.012

SMILES: COc1c(OCCCN2CCOCC2)ccc2c1N=C(NC(=O)c1cnc(N)nc1)N1CCN=C21 [Copanlisib]
- relative viability (0.00017 µM): 1.1 ± 0.042
- relative viability (0.00051 µM): 1.1 ± 0.029
- relative viability (0.00152 µM): 1.11 ± 0.015
- relative viability (0.00457 µM): 1.088 ± 0.0075
- relative viability (0.01372 µM): 1.075 ± 0.01
- relative viability (0.04115 µM): 1.04 ± 0.029
- relative viability (0.1235 µM): 1.003 ± 0.01
- relative viability (0.3704 µM): 0.907 ± 0.021
- relative viability (1.111 µM): 0.523 ± 0.014
- relative viability (3.333 µM): 0.198 ± 0.0088
- relative viability (10 µM): 0.146 ± 0.011

SMILES: COc1cc2nccc(Oc3ccc(NC(=O)Nc4cc(C)on4)c(Cl)c3)c2cc1OC [Tivozanib]
- relative viability (0.00017 µM): 1.08 ± 0.013
- relative viability (0.00051 µM): 1.06 ± 0.016
- relative viability (0.00152 µM): 1.06 ± 0.027
- relative viability (0.00457 µM): 1.08 ± 0.021
- relative viability (0.01372 µM): 1.074 ± 0.005
- relative viability (0.04115 µM): 1.06 ± 0.034
- relative viability (0.1235 µM): 1.09 ± 0.018
- relative viability (0.3704 µM): 1.05 ± 0.031
- relative viability (1.111 µM): 1.06 ± 0.023
- relative viability (3.333 µM): 1.03 ± 0.027
- relative viability (10 µM): 0.719 ± 0.015

SMILES: CC[C@H](Nc1ncnc2[nH]cnc12)c1nc2cccc(F)c2c(=O)n1-c1ccccc1 [Idelalisib]
- relative viability (0.00017 µM): 1.117 ± 0.0096
- relative viability (0.00051 µM): 1.12 ± 0.017
- relative viability (0.00152 µM): 1.12 ± 0.022
- relative viability (0.00457 µM): 1.105 ± 0.01
- relative viability (0.01372 µM): 1.11 ± 0.041
- relative viability (0.04115 µM): 1.11 ± 0.025
- relative viability (0.1235 µM): 1.1 ± 0.046
- relative viability (0.3704 µM): 1.1 ± 0.024
- relative viability (1.111 µM): 1.085 ± 0.0061
- relative viability (3.333 µM): 1.06 ± 0.043
- relative viability (10 µM): 1.04 ± 0.019

SMILES: Cc1cc(C)c(/C=C2\C(=O)Nc3ccccc32)[nH]1 [Semaxanib]
- relative viability (0.00017 µM): 1.04 ± 0.035
- relative viability (0.00051 µM): 1.04 ± 0.025
- relative viability (0.00152 µM): 1.05 ± 0.028
- relative viability (0.00457 µM): 1.05 ± 0.037
- relative viability (0.01372 µM): 1.03 ± 0.041
- relative viability (0.04115 µM): 1.05 ± 0.02
- relative viability (0.1235 µM): 1.04 ± 0.03
- relative viability (0.3704 µM): 1 ± 0.027
- relative viability (1.111 µM): 0.989 ± 0.027
- relative viability (3.333 µM): 1.002 ± 0.008
- relative viability (10 µM): 0.927 ± 0.025

SMILES: Cc1ccc(F)c(NC(=O)Nc2ccc(-c3cccc4[nH]nc(N)c34)cc2)c1 [Linifanib]
- relative viability (0.00017 µM): 1.1 ± 0.012
- relative viability (0.00051 µM): 1.1 ± 0.016
- relative viability (0.00152 µM): 1.09 ± 0.027
- relative viability (0.00457 µM): 1.09 ± 0.024
- relative viability (0.01372 µM): 1.05 ± 0.016
- relative viability (0.04115 µM): 1.07 ± 0.015
- relative viability (0.1235 µM): 1.052 ± 0.0063
- relative viability (0.3704 µM): 1.05 ± 0.039
- relative viability (1.111 µM): 1.03 ± 0.037
- relative viability (3.333 µM): 0.968 ± 0.019
- relative viability (10 µM): 1.01 ± 0.059

SMILES: COCc1c(-c2cc3cc(C)cc(OC)c3s2)c2c(N)ncnn2c1CN1CCNC(=O)C1 [Rogaratinib]
- relative viability (0.00017 µM): 1.09 ± 0.019
- relative viability (0.00051 µM): 1.1 ± 0.014
- relative viability (0.00152 µM): 1.08 ± 0.012
- relative viability (0.00457 µM): 1.09 ± 0.0024
- relative viability (0.01372 µM): 1.08 ± 0.032
- relative viability (0.04115 µM): 1.06 ± 0.016
- relative viability (0.1235 µM): 1.06 ± 0.018
- relative viability (0.3704 µM): 1.06 ± 0.017
- relative viability (1.111 µM): 1.09 ± 0.023
- relative viability (3.333 µM): 1.04 ± 0.09
- relative viability (10 µM): 0.877 ± 0.031

SMILES: N#CC[C@H](C1CCCC1)n1cc(-c2ncnc3[nH]ccc23)cn1 [Ruxolitinib]
- relative viability (0.00017 µM): 1.04 ± 0.024
- relative viability (0.00051 µM): 1.04 ± 0.028
- relative viability (0.00152 µM): 1.05 ± 0.03
- relative viability (0.00457 µM): 1.03 ± 0.036
- relative viability (0.01372 µM): 1.02 ± 0.033
- relative viability (0.04115 µM): 1.03 ± 0.038
- relative viability (0.1235 µM): 1.015 ± 0.0094
- relative viability (0.3704 µM): 0.995 ± 0.062
- relative viability (1.111 µM): 0.988 ± 0.044
- relative viability (3.333 µM): 0.9816 ± 0.0032
- relative viability (10 µM): 0.809 ± 0.031

SMILES: CCN1CCN(Cc2ccc(Nc3ncc(F)c(-c4cc(F)c5nc(C)n(C(C)C)c5c4)n3)nc2)CC1 [Abemaciclib]
- relative viability (0.00017 µM): 1.04 ± 0.032
- relative viability (0.00051 µM): 1.02 ± 0.029
- relative viability (0.00152 µM): 1.02 ± 0.018
- relative viability (0.00457 µM): 1.03 ± 0.017
- relative viability (0.01372 µM): 1.033 ± 0.0059
- relative viability (0.04115 µM): 1.033 ± 0.01
- relative viability (0.1235 µM): 1.04 ± 0.014
- relative viability (0.3704 µM): 1.055 ± 0.0084
- relative viability (1.111 µM): 1.01 ± 0.048
- relative viability (3.333 µM): 0.753 ± 0.036
- relative viability (10 µM): 0.6015 ± 0.0059

SMILES: CNC(=O)c1cc(Oc2ccc(NC(=O)Nc3ccc(Cl)c(C(F)(F)F)c3)c(F)c2)ccn1 [Regorafenib]
- relative viability (0.00017 µM): 1.09 ± 0.013
- relative viability (0.00051 µM): 1.11 ± 0.012
- relative viability (0.00152 µM): 1.12 ± 0.019
- relative viability (0.00457 µM): 1.12 ± 0.013
- relative viability (0.01372 µM): 1.112 ± 0.0027
- relative viability (0.04115 µM): 1.1 ± 0.016
- relative viability (0.1235 µM): 0.787 ± 0.57
- relative viability (0.3704 µM): 1.07 ± 0.018
- relative viability (1.111 µM): 0.938 ± 0.055
- relative viability (3.333 µM): 0.569 ± 0.014
- relative viability (10 µM): 0.238 ± 0.083
